Values quoted from earlier work, collected in patent US20180296814A1, “ADMINISTRATION OF DRUGS TO A PATIENT” (Progenity, Inc., priority 2010, published 2018).

Conditions: regional absorption in the intestinal tract, rats

- location of maximum absorption: ileum
Substance: salmon calcitonin
